# Values quoted from earlier work, collected in US20210181185A1, “DENDRITIC CELL RECRUITMENT FROM BLOOD TO BRAIN IN NEURODEGENERATIVE DISEASE” (priority 2017, published 2021).
# Conditions: free DiO
smiles,measurement,value
CCCCCCCCCCCCCCCCCCN1/C(=C\C=C\c2oc3ccccc3[n+]2CCCCCCCCCCCCCCCCCC)Oc2ccccc21.[O-][Cl+3]([O-])([O-])[O-] [DiO],Clearance of free dye from blood,rapidly cleared from blood
